The values below come from patent publication US8865734B2 (priority 2010, dated 2014).

Values after ≈ are worked out from the molar mass of the structure shown. Where only a bound is given, the exact number is not on record here.

The test system of data set [1] is in vitro grown Mycobacteria (M. tuberculosis). Briefly: QUM: Quantification of in vitro grown Mycobacteria (in vitro growth fluorescence assay). The note with it: Mycobacterium tuberculosis; MIC, 80% bacterial growth inhibition; in vitro growth; read-out: QUM. In kind it is cell-based. An outline of the steps:
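Mycobacterium tuberculosis grown in vitro was quantified by fluorescence across compound dose responses. MIC is defined as the minimum concentration producing 80% growth inhibition.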

The subject of data set [2] is M. tuberculosis inside the host macrophage. Briefly: QIM: Quantification of Intracellular Mycobacteria (intracellular growth assay, phenotypic cell-based). The settings on record: Mycobacterium tuberculosis; MIC, 80% bacterial growth inhibition; intracellular growth; read-out: QIM. An outline of the steps:
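Phenotypic high-content assay measuring M. tuberculosis multiplication inside host macrophages, run as dose response. MIC is the minimum compound concentration giving 80% bacterial growth inhibition.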

Compound `CCc1nc2cc(C)ccn2c1C(=O)NCc1ccc(N2CCOCC2)cc1` [Compound 68, 2-Ethyl-7-methyl-N-(4-morpholinobenzyl)imidazo[1,2-a]pyridine-3-carboxamide] returned a melting point of 190 °C. Further, in data set [1], the MIC fell in the range of 1 to 20 µM (≈ 0.378 to 7.57 µg/mL). The MIC in data set [2] was under 1 µM.

The compound `CCc1nc2cc(C)ccn2c1C(=O)NCc1ccc2ccccc2c1` [Compound 69, 2-Ethyl-7-methyl-N-(naphthalen-2-ylmethyl)imidazo[1,2-a]pyridine-3-carboxamide] gave a melting point of 192 °C. In data set [1], the MIC was in the range of 1 to 20 µM (≈ 0.343 to 6.87 µg/mL). In addition, the MIC in data set [2] is under 1 µM.

Regarding `CCc1nc2cc(Cl)ccn2c1C(=O)NCc1ccc(N2CCOCC2)cc1` [Compound 89, 7-Chloro-2-ethyl-N-(4-morpholinobenzyl)imidazo[1,2-a]pyridine-3-carboxamide], the melting point worked out at 195 °C. For the same compound, the MIC in data set [1] is under 1 µM. Also, in data set [2], the MIC was in the range of 1 to 20 µM (≈ 0.399 to 7.98 µg/mL).

`CCc1nc2ccc(Cl)cn2c1C(=O)NCc1ccc(C#N)cc1` [Compound 146, 6-Chloro-N-(4-cyanobenzyl)-2-ethylimidazo[1,2-a]pyridine-3-carboxamide] showed a melting point of 223 to 224 °C. For the same compound, the MIC in data set [1] was over 20 µM. For the same compound, the MIC in data set [2] lay within 1 to 20 µM (≈ 0.339 to 6.78 µg/mL).

`CCc1nc2ccccn2c1C(=O)NCc1ccc(N2CCC(c3ccc(OC(F)(F)F)cc3)CC2)cc1` [Compound 288, 2-Ethyl-N-(4-(4-(4-(trifluoromethoxy)phenyl)piperidin-1-yl)benzyl)imidazo[1,2-a]pyridine-3-carboxamide] had a melting point of 146 °C. Also, the MIC in data set [1] is under 1 µM.

For `CCc1nc2cc(Cl)ccn2c1C(=O)NCc1ccc(N2CCC(Cc3ccccc3)CC2)cc1` [Compound 294, N-(4-(4-Benzylpiperidin-1-yl)benzyl)-7-chloro-2-ethylimidazo[1,2-a]pyridine-3-carboxamide], the melting point worked out at 63.8 °C. The MIC in data set [1] is 1 to 20 µM (≈ 0.487 to 9.74 µg/mL).

Compound `CCc1nc2ccc(Cl)cn2c1C(=O)NCc1ccc(N2CCC(COc3ccc(OC(F)(F)F)cc3)CC2)cc1` [Compound 298, 6-chloro-2-ethyl-N-(4-(4-((4-(trifluoromethoxy)phenoxy)methyl)piperidin-1-yl)benzyl)imidazo[1,2-a]pyridine-3-carboxamide] registered a melting point of 183.6 °C. Also, in data set [1], the MIC was under 1 µM.

The compound `CCc1nc2cc(Cl)ccn2c1C(=O)NCc1ccc(N2CCC(COc3ccc(OC(F)(F)F)cc3)CC2)cc1` [Compound 299, 7-Chloro-2-ethyl-N-(4-(4-((4-(trifluoromethoxy)phenoxy)methyl)piperidin-1-yl)benzyl)imidazo[1,2-a]pyridine-3-carboxamide] returned a melting point of 189.5 °C. The MIC in data set [1] is under 1 µM.

`CCc1nc2c(OC(F)F)cccn2c1C(=O)NCc1ccc(N2CCN(c3ccc(F)cc3)CC2)cc1` [Compound 304, 8-(Difluoromethoxy)-2-ethyl-N-(4-(4-(4-fluorophenyl)piperazin-1-yl)benzyl)imidazo[1,2-a]pyridine-3-carboxamide] registered a melting point of 186.3 °C. Further, in data set [1], the MIC is under 1 µM.

Consider `CCc1nc2ccc(C)cn2c1C(=O)NCc1ccc(N2CCN(c3ccc(F)cc3)CC2)cc1` [Compound 308, 2-Ethyl-N-(4-(4-(4-fluorophenyl)piperazin-1-yl)benzyl)-6-methylimidazo[1,2-a]pyridine-3-carboxamide], for which the melting point was 187.6 °C. In addition, the MIC in data set [1] was under 1 µM.

Consider `CCc1nc2c(OC(F)F)cccn2c1C(=O)NCc1ccc(N2CCOCC2)cc1` [Compound 319, 8-(Difluoromethoxy)-2-ethyl-N-(4-morpholinobenzyl)imidazo[1,2-a]pyridine-3-carboxamide], for which the melting point worked out at 163 °C. Besides, in data set [1], the MIC is 1 to 20 µM (≈ 0.43 to 8.61 µg/mL).

`CCc1nc2ccc(C(F)(F)F)cn2c1C(=O)NCc1ccc(N2CCOCC2)cc1` [Compound 321, 2-Ethyl-N-(4-morpholinobenzyl)-6-(trifluoromethyl)imidazo[1,2-a]pyridine-3-carboxamide] registered a melting point of 207.6 °C. The MIC in data set [1] is under 1 µM.

In the case of `CCc1nc2cc(C(F)(F)F)ccn2c1C(=O)NCc1ccc(N2CCOCC2)cc1` [Compound 322, 2-Ethyl-N-(4-morpholinobenzyl)-7-(trifluoromethyl)imidazo[1,2-a]pyridine-3-carboxamide], the melting point stood at 174.1 °C. In addition, the MIC in data set [1] was in the range of 1 to 20 µM (≈ 0.432 to 8.65 µg/mL).

`CCc1nc2c(C(F)(F)F)cccn2c1C(=O)NCc1ccc(N2CCOCC2)cc1` [Compound 323, 2-Ethyl-N-(4-morpholinobenzyl)-8-(trifluoromethyl)imidazo[1,2-a]pyridine-3-carboxamide]: the melting point came to 200.6 °C. Moreover, the MIC in data set [1] was in the range of 1 to 20 µM (≈ 0.432 to 8.65 µg/mL).

Compound `CCc1nc2cc(Cl)ccn2c1C(=O)NCc1ccc(N2CCC(c3ccc(Cl)cc3)CC2)cc1` [Compound 338, 7-Chloro-N-(4-(4-(4-chlorophenyl)piperidin-1-yl)benzyl)-2-ethylimidazo[1,2-a]pyridine-3-carboxamide] showed a melting point of 177 °C. Also, the MIC in data set [1] was under 1 µM.

As for `CCc1nc2ccc(Cl)cn2c1C(=O)NCc1ccc2oc(C3CCCCC3)nc2c1` [Compound 339, 6-Chloro-N-((2-cyclohexylbenzo[d]oxazol-5-yl)methyl)-2-ethylimidazo[1,2-a]pyridine-3-carboxamide], the melting point was found to be 169.7 °C. In addition, the MIC in data set [1] was under 1 µM.

`CCc1nc2cc(Cl)ccn2c1C(=O)NCc1ccc2oc(C3CCCCC3)nc2c1` [Compound 340, 7-Chloro-N-((2-cyclohexylbenzo[d]oxazol-5-yl)methyl)-2-ethylimidazo[1,2-a]pyridine-3-carboxamide] showed a melting point of 163 °C. Besides, the MIC in data set [1] was under 1 µM.

`CCc1nc2ccc(Cl)cn2c1C(=O)NCc1ccc(N2CCC(O)(c3ccc(F)cc3)CC2)cc1` [Compound 341, 6-Chloro-2-ethyl-N-(4-(4-(4-fluorophenyl)-4-hydroxypiperidin-1-yl)benzyl)imidazo[1,2-a]pyridine-3-carboxamide]: the melting point came to 173.5 °C. The MIC in data set [1] is under 1 µM.

In the case of `CCc1nc2cc(Cl)ccn2c1C(=O)NCc1ccc(N2CCC(O)(c3ccc(F)cc3)CC2)cc1` [Compound 342, 7-Chloro-2-ethyl-N-(4-(4-(4-fluorophenyl)-4-hydroxypiperidin-1-yl)benzyl)imidazo[1,2-a]pyridine-3-carboxamide], the melting point was found to be 199 °C. The MIC in data set [1] is under 1 µM.

Compound `CCc1nc2ccc(Cl)cn2c1C(=O)NCc1ccc(N2CCC(C(N)=O)CC2)cc1` [Compound 343, N-(4-(4-Carbamoylpiperidin-1-yl)benzyl)-6-chloro-2-ethylimidazo[1,2-a]pyridine-3-carboxamide] returned a melting point of 257.5 °C. In addition, the MIC in data set [1] was under 1 µM.

Compound `CCc1nc2cc(Cl)ccn2c1C(=O)NCc1ccc(N2CCC(C(N)=O)CC2)cc1` [Compound 344, N-(4-(4-Carbamoylpiperidin-1-yl)benzyl)-7-chloro-2-ethylimidazo[1,2-a]pyridine-3-carboxamide] came in with a melting point of 244 °C. Moreover, the MIC in data set [1] is 1 to 20 µM (≈ 0.44 to 8.8 µg/mL).

`CCc1nc2ccc(Cl)cn2c1C(=O)NCc1ccc(N2CCOCC2)c(Cl)c1` [Compound 349, 6-Chloro-N-(3-chloro-4-morpholinobenzyl)-2-ethylimidazo[1,2-a]pyridine-3-carboxamide] came in with a melting point of 175.5 °C. In addition, in data set [1], the MIC was under 1 µM.
